The assay deals with Plasmodium berghei. Briefly: Luciferase/luciferin-expressing antifolate-resistant parasites were used to infect a culture of HepG2 cells that were pre-incubated with compounds. Infected hepatocytes emit light due to the luciferase reaction. Assay results are presented as the percent inhibition of light emission compared to control. […]. Particulars: sporozoite; for IC90: read-out: LUCIFERASE INFECTION ASSAY - IC90. In kind it is functional.

One may read the IC50 as the concentration that inhibits the measured activity by half. Usually IC90 stands for the point of the concentration-response curve where the effect stands at 90%.

Consider `CN(C(=O)COC(=O)c1nc(Cl)c(Cl)c(Cl)c1Cl)C1CCS(=O)(=O)C1` (stereo unspecified), for which the IC90 was more than 10 µM. Moreover, for the setting “HEPG2TOX_HILL_SLOPE 15.2, HEPG2TOX_R_SQUARED 0.451, read-out: LUCIFERASE INFECTION ASSAY - IC50”, the IC50 was more than 10 µM.

As for `COc1ccc(CC(N)c2csc(NC(=O)C(c3ccccc3)c3ccccc3)n2)cc1` (stereo unspecified), the IC90 came to 5.8 µM. Besides, the 50% inhibitory concentration (IC50) (HEPG2TOX_HILL_SLOPE 15.4, HEPG2TOX_R_SQUARED 0.86, PBLUC_HILL_SLOPE 4.59, PBLUC_R_SQUARED 0.756, read-out: LUCIFERASE INFECTION ASSAY - IC50) worked out at 3.59 µM.

As to `COc1cccc(NC(=O)N2CCc3nc(NCc4cccc(Oc5ccccc5)c4)ncc3C2)c1`, the IC90 turned out to be 3.67 µM. For the same compound, the concentration for half-maximal inhibition (IC50) (HEPG2TOX_HILL_SLOPE 15.7, HEPG2TOX_R_SQUARED 0.806, PBLUC_HILL_SLOPE 104, PBLUC_R_SQUARED 0.398, read-out: LUCIFERASE INFECTION ASSAY - IC50) stood at 3.59 µM.

With `N#Cc1ccc(OC(=O)c2c(Cl)cccc2Cl)cc1`, the IC90 is more than 11.3 µM. Also, the IC50 (HEPG2TOX_HILL_SLOPE 15.2, HEPG2TOX_R_SQUARED 0.237, read-out: LUCIFERASE INFECTION ASSAY - IC50) was more than 11.3 µM.

`O=c1c(Cl)c(Cl)cnn1-c1ccc(S(=O)(=O)NCCCOCC2CC2)cc1`: the IC90 is 4.65 µM. Further, the IC50 (HEPG2TOX_HILL_SLOPE 15.7, HEPG2TOX_R_SQUARED 0.58, PBLUC_HILL_SLOPE 8.81, PBLUC_R_SQUARED 0.0863, read-out: LUCIFERASE INFECTION ASSAY - IC50) was 3.62 µM.

For `CNC(=O)c1cccc(NC(=O)c2ccc3[nH]c4c(c3c2)CCCC4)c1`, the IC90 was more than 10 µM. In addition, where the note is “HEPG2TOX_HILL_SLOPE 15.2, HEPG2TOX_R_SQUARED 0.62, read-out: LUCIFERASE INFECTION ASSAY - IC50”, the IC50 is more than 10 µM.

As for `COc1cccc(C2=NN(C(=O)c3ccco3)C(c3ccccc3O)C2)c1` (stereo unspecified), the IC90 is 8.57 µM. Moreover, under “HEPG2TOX_HILL_SLOPE 15.7, HEPG2TOX_R_SQUARED 0.922, PBLUC_HILL_SLOPE 21, PBLUC_R_SQUARED 0.659, read-out: LUCIFERASE INFECTION ASSAY - IC50”, the IC50 is 7.72 µM.

As to `Cc1csc(NC(=O)Nc2cc(C(F)(F)F)cc(C(F)(F)F)c2)c1`, the IC90 is 3.4 µM. Further, the IC50 (HEPG2TOX_HILL_SLOPE 15.4, HEPG2TOX_R_SQUARED 0.694, PBLUC_HILL_SLOPE 2.82, PBLUC_R_SQUARED 0.474, read-out: LUCIFERASE INFECTION ASSAY - IC50) was determined as 1.56 µM.

As to `CCOC(=O)c1cc(C#N)c(Sc2n[nH]c(=O)n2C(C)C)nc1C(F)(F)F`, the IC90 is more than 8.22 µM. The IC50 (HEPG2TOX_HILL_SLOPE 15.1, HEPG2TOX_R_SQUARED 0.842, PBLUC_HILL_SLOPE 4.42, PBLUC_R_SQUARED 0.232, read-out: LUCIFERASE INFECTION ASSAY - IC50) is 5.41 µM.

Regarding `CC(C)N1C(=O)N(CCc2ccccc2)C2(CCN(Cc3ccccc3)CC2)C1=O`, the IC90 was more than 8.14 µM. Further, for the setting “HEPG2TOX_HILL_SLOPE 15.6, HEPG2TOX_R_SQUARED 0.916, PBLUC_HILL_SLOPE 3.95, PBLUC_R_SQUARED 0.588, read-out: LUCIFERASE INFECTION ASSAY - IC50”, the IC50 was 4.99 µM.

Consider `C=CCc1ccccc1OCC(O)CNC(C)(C)CC(C)(C)C` (stereo unspecified), for which the IC90 was found to be 4.91 µM. The IC50 (HEPG2TOX_HILL_SLOPE 15.1, HEPG2TOX_R_SQUARED 0.905, PBLUC_HILL_SLOPE 217, PBLUC_R_SQUARED 0.361, read-out: LUCIFERASE INFECTION ASSAY - IC50) turned out to be 4.86 µM.

For the compound `Cc1ccc(O)c(C(=O)NCCc2ccc3c(c2)OCCO3)c1`, the IC90 worked out at 7.45 µM. The IC50 (HEPG2TOX_HILL_SLOPE 15.5, HEPG2TOX_R_SQUARED 0.566, PBLUC_HILL_SLOPE 1.92, PBLUC_R_SQUARED 0.779, read-out: LUCIFERASE INFECTION ASSAY - IC50) worked out at 2.37 µM.

Consider `COc1cc(-c2nc3ccc(NC(=O)Nc4cccc(C(F)(F)F)c4)cn3n2)cc(OC)c1OC`, for which the IC90 was found to be 8.43 µM. Moreover, for the setting “HEPG2TOX_HILL_SLOPE 15.4, HEPG2TOX_R_SQUARED 0.156, PBLUC_HILL_SLOPE 4.31, PBLUC_R_SQUARED 0.169, read-out: LUCIFERASE INFECTION ASSAY - IC50”, the IC50 was 5.06 µM.

On to `CCOc1cc(CNCc2nc3ccccc3[nH]2)ccc1OCc1cccs1`, for which the IC90 was more than 10 µM. Also, under “HEPG2TOX_HILL_SLOPE 15, HEPG2TOX_R_SQUARED 0.655, PBLUC_HILL_SLOPE 1.7, PBLUC_R_SQUARED 0.452, read-out: LUCIFERASE INFECTION ASSAY - IC50”, the IC50 turned out to be 4.17 µM.

Turning to `O=C(Nc1cccc(C(F)(F)F)c1)n1ncc(Sc2ccc(Cl)cc2)c1-c1ccc(Cl)cc1`, the IC90 is 4.72 µM. Also, the IC50 (HEPG2TOX_HILL_SLOPE 15.8, HEPG2TOX_R_SQUARED 0.635, PBLUC_HILL_SLOPE 5.24, PBLUC_R_SQUARED 0.621, read-out: LUCIFERASE INFECTION ASSAY - IC50) was 3.11 µM.

As for `COc1cc2c(cc1OC)CN(C(=O)CCN1c3ccccc3Sc3ccccc31)CC2`, the concentration for an effect of 90% (IC90) was determined as 8.48 µM. Besides, where the note is “HEPG2TOX_HILL_SLOPE 15.5, HEPG2TOX_R_SQUARED 0.469, PBLUC_HILL_SLOPE 3.54, PBLUC_R_SQUARED 0.432, read-out: LUCIFERASE INFECTION ASSAY - IC50”, the IC50 amounted to 4.56 µM.

On to `N#CC1(c2ccccc2)C/C(=C\c2cccnc2)C(=O)/C(=C/c2cccnc2)C1` (stereo unspecified), for which the IC90 came to 4.83 µM. Further, under “HEPG2TOX_HILL_SLOPE 15.6, HEPG2TOX_R_SQUARED 0.458, PBLUC_HILL_SLOPE 155, PBLUC_R_SQUARED 0.194, read-out: LUCIFERASE INFECTION ASSAY - IC50”, the IC50 stood at 4.76 µM.

As for `C=C(c1ccccc1)[n+]1ccc(C(=O)c2ccccc2)cc1`, the IC90 is more than 9.01 µM. Besides, the IC50 (HEPG2TOX_HILL_SLOPE 15.5, HEPG2TOX_R_SQUARED 0.47, PBLUC_HILL_SLOPE 4.11, PBLUC_R_SQUARED 0.394, read-out: LUCIFERASE INFECTION ASSAY - IC50) was 5.35 µM.

With `Cc1nc(NC(=O)CSc2nnc(-c3c[nH]c4ccccc34)n2C2CC2)c(Cl)cc1Cl`, the IC90 is more than 10 µM. Also, the IC50 (HEPG2TOX_HILL_SLOPE 15.3, 2.10, HEPG2TOX_R_SQUARED 0.288, 0.992, PBLUC_HILL_SLOPE 2.43, PBLUC_R_SQUARED 0.583, read-out: LUCIFERASE INFECTION ASSAY - IC50) came to 4.48 µM.

Turning to `CCOc1ccc(-c2cc(-c3ccc(S(C)(=O)=O)cc3)nc3c2cnn3C(C)C)cc1`, the IC90 was more than 10 µM. Moreover, the IC50 (HEPG2TOX_HILL_SLOPE 15.4, HEPG2TOX_R_SQUARED 0.615, PBLUC_HILL_SLOPE 23, PBLUC_R_SQUARED 0.199, read-out: LUCIFERASE INFECTION ASSAY - IC50) was 9.21 µM.

In the case of `COc1ccc(C(C)=O)cc1COc1cccc(C(=O)NCc2ccccc2)c1`, the IC90 was 9.35 µM. Also, under “HEPG2TOX_HILL_SLOPE 15.6, HEPG2TOX_R_SQUARED 0.727, PBLUC_HILL_SLOPE 15.6, PBLUC_R_SQUARED 0.0647, read-out: LUCIFERASE INFECTION ASSAY - IC50”, the IC50 worked out at 8.12 µM.

`CN(C)S(=O)(=O)c1cccc(C(=O)Nc2nc3ccc(Oc4ccccc4)cc3s2)c1`: the IC90 is more than 10 µM. Also, the IC50 (HEPG2TOX_HILL_SLOPE 15.9, HEPG2TOX_R_SQUARED 0.649, PBLUC_HILL_SLOPE 3.03, PBLUC_R_SQUARED 0.302, read-out: LUCIFERASE INFECTION ASSAY - IC50) worked out at 5.87 µM.

As to `CC(C)n1ncc2c(C(=O)Nc3ccc(N4CCN(C)CC4)nc3)cc(-c3cccs3)nc21`, the IC90 came out at 8.59 µM. Where the note is “HEPG2TOX_HILL_SLOPE 15.5, HEPG2TOX_R_SQUARED 0.177, PBLUC_HILL_SLOPE 20.4, 20.5, PBLUC_R_SQUARED 0.223, 0.421, read-out: LUCIFERASE INFECTION ASSAY - IC50”, the IC50 is 7.71 µM.

Take `CC(C)(C)c1csc(NC(=O)c2ccc(Br)cc2)n1`: the IC90 stood at 8.74 µM. Besides, for the setting “HEPG2TOX_HILL_SLOPE 15.1, HEPG2TOX_R_SQUARED 0.819, PBLUC_HILL_SLOPE 4.4, PBLUC_R_SQUARED 0.25, read-out: LUCIFERASE INFECTION ASSAY - IC50”, the IC50 came to 5.3 µM.

`FC1(F)Oc2ccc(Nc3cc(-c4cc(Cl)cc(Cl)c4)ncn3)cc2OC1(F)F`: the IC90 is more than 7.4 µM. For the same compound, the IC50 (HEPG2TOX_HILL_SLOPE 15.2, HEPG2TOX_R_SQUARED 0.834, PBLUC_HILL_SLOPE 14.8, PBLUC_R_SQUARED 0.0861, read-out: LUCIFERASE INFECTION ASSAY - IC50) turned out to be 6.88 µM.

`CN(C)c1ccc(-c2cc3c(cn2)nc(Nc2ccccc2)n3C)cc1`: the IC90 was found to be 4.23 µM. In addition, the IC50 (HEPG2TOX_HILL_SLOPE 15.7, HEPG2TOX_R_SQUARED 0.892, PBLUC_HILL_SLOPE 14.7, PBLUC_R_SQUARED 0.425, read-out: LUCIFERASE INFECTION ASSAY - IC50) is 3.64 µM.

As for `NC(CCc1ccccc1)c1csc(Nc2ccc(C(=O)NCc3ccco3)cn2)n1` (stereo unspecified), the IC90 worked out at 7.53 µM. Besides, the IC50 (HEPG2TOX_HILL_SLOPE 15.2, HEPG2TOX_R_SQUARED 0.624, PBLUC_HILL_SLOPE 17, PBLUC_R_SQUARED 0.625, read-out: LUCIFERASE INFECTION ASSAY - IC50) came to 6.62 µM.

Take `Nc1c(C(=O)c2ccc3c(c2)NC(=O)CO3)sc2c1c(=O)[nH]c(=O)n2Cc1ccccc1`: the IC90 is more than 10 µM. Where the note is “HEPG2TOX_HILL_SLOPE 15, HEPG2TOX_R_SQUARED 0.948, PBLUC_HILL_SLOPE 0.935, PBLUC_R_SQUARED 0.804, read-out: LUCIFERASE INFECTION ASSAY - IC50”, the IC50 was found to be 1.58 µM.

Values taken from ChEMBL document CHEMBL4483862, “Open-source discovery of chemical leads for next-generation chemoprotective antimalarials” (2018).
